Measurements from PMC12528448, “Resistance to CDK7 inhibitors directed by acquired mutation of a conserved residue in cancer cells” (The EMBO Journal, 2025).
Several values for one entry are separate records, joined by “and”; a condition that tells them apart may be missing. Equal entries are not always repeated.

Test system: LNCaP-CDK7-D97N cells
Test: Growth assay (SRB), LNCaP CDK7-D97N knock-in
Format: cell-based, human
Conditions: LNCaP CDK7 D99N
Procedure: To determine the IC50 of drug treatments on growth, cells were seeded in 96-well culture plates. Two days after seeding, the cells were treated with increasing concentrations of drugs and incubated for 4 days. Cell number was determined using the SRB assay (Skehan et al, [1990]), and IC50 values were calculated using non-linear regression curve fitting in GraphPad Prism v10. For all other growth experiments, cells were seeded into 96-well plates, and appropriate drugs were added 2 days after seeding. Cells were then incubated in an IncuCyte Zoom live-cell imager, with cell confluency measured every 6 h. Cell doubling times were determined by non-linear curve fitting (exponential growth equation) in GraphPad Prism v10.
Alt-R^TM S.p. Cas9 nuclease V3, Alt-R CRISPR-Cas9 crRNA, TracrRNA and the donor templates were obtained from Integrated DNA Technologies. […] Cells were treated with 0.7 µM of Alt-R HDR Enhancer V2 to improve HRD efficiency. Sequences of the CRISPRs in the crRNA and the donor templates are shown in the Reagents and tools table. Donor templates were designed to include non-coding substitutions to aid genome DNA PCR for identifying knock-in events and to facilitate cloning; these substitutions are noted in the Reagents and tools table.

Row | SMILES | % Growth (Log10 Conc. (nM) 0.09) | % Growth (Log10 Conc. (nM) 0.69) | % Growth (Log10 Conc. (nM) 1.29) | % Growth (Log10 Conc. (nM) 1.89) | % Growth (Log10 Conc. (nM) 2.49) | % Growth (Log10 Conc. (nM) 3.10) | % Growth (Log10 Conc. (nM) 3.70) | % Growth (Log10 Conc. (nM) 4.30) | % Growth (Log10 Conc. (nM) -0.52) | % Growth (Log10 Conc. (nM) -1.12)
1 | CC(C)c1cnn2c(NCc3ccccc3-n3cccn3)nc(OC3CCCNC3)nc12 (stereo not drawn) [LDC4297] | 106.48% and 87.66% | 87.77% and 86.95% | 78.55% and 76.66% | 68.25% and 64.95% | 52.79% and 47.15% | 25.80% and 16.35% | 4.77% and -4.61% | -8.16% and -14.41% | 106.84% and 93.83% | –
2 | CC1(C)CC[C@H](Nc2ncc(C(F)(F)F)c(-c3c[nH]c4c(P(C)(C)=O)c(C#N)ccc34)n2)CN1 [SY-5609] | 71.79% and 87.29% | 65.81% and 72.30% | 57.80% and 49.26% | 79.76% and 63.91% | 52.42% and 54.28% | 25.04% and 27.42% | 4.80% and 4.93% | – | 89.79% and 90.32% | 105.31% and 92.26%
